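Interpolation was linear, between the two tested concentrations surrounding the appropriate level; five concentrations were tested over 48 hours in 96-well plates. Here, GI50 denotes the concentration required for 50% inhibition of growth. TGI marks complete inhibition of growth.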
Experiments:
Experiment in all cases: NCI tumour cell line growth inhibition, 48 h
NCI-H23 lung = system: NCI-H23 lung
SR leukemia = system: SR leukemia
UACC-62 melanoma = system: UACC-62 melanoma
UACC-257 melanoma = system: UACC-257 melanoma
SF-268 CNS = system: SF-268 CNS
786-0 renal = system: 786-0 renal
NCI-H226 lung = system: NCI-H226 lung
SF-295 CNS = system: SF-295 CNS
MDA-MB-231 breast = system: MDA-MB-231 breast
RPMI-8226 leukemia = system: RPMI-8226 leukemia

In the case of `CCOC(=N)CC(=O)Nc1ccccc1CC`, the TGI (NCI-H23 lung) was over 100 µM, the TGI (SR leukemia) was over 100 µM and the TGI (UACC-62 melanoma) was over 100 µM. It also gave a TGI (UACC-257 melanoma) of over 100 µM, a TGI (SF-268 CNS) of over 100 µM and a TGI (786-0 renal) of over 100 µM. For the same molecule, the TGI (NCI-H226 lung) was over 100 µM and the TGI (SF-295 CNS) was over 100 µM.

With `C=C1C(=O)O[C@@H]2C[C@@H](C)[C@@H]3C=CC(=O)[C@@]3(C)[C@@H](OC(=O)CCCC(=O)O[C@H]3[C@@H]4C(=C)C(=O)O[C@@H]4C[C@@H](C)[C@@H]4C=CC(=O)[C@]43C)[C@H]12` the TGI (MDA-MB-231 breast) was 0.079 µM, the TGI (NCI-H23 lung) was 0.275 µM and the TGI (UACC-62 melanoma) was 0.103 µM. For the same molecule, the TGI (UACC-257 melanoma) was 0.271 µM, the TGI (SF-268 CNS) was 0.23 µM and the TGI (786-0 renal) was 0.0448 µM. It also gave a TGI (NCI-H226 lung) of 1.35 µM and a TGI (SF-295 CNS) of 3.13 µM.

With `COc1ccccc1/C=C(\NC(=O)c1ccccc1)c1nc2ccccc2[nH]1` the TGI (RPMI-8226 leukemia) was 51.7 µM, the TGI (NCI-H23 lung) was over 100 µM and the TGI (UACC-62 melanoma) was over 100 µM. For the same molecule, the TGI (UACC-257 melanoma) was over 100 µM, the TGI (SF-268 CNS) was over 100 µM and the TGI (786-0 renal) was over 100 µM.

For `Nc1ccccc1SC(/C=C/NNC1=NC(c2ccccc2)C(c2ccccc2)=NN1)c1ccccc1` (stereo not given), the TGI (RPMI-8226 leukemia) was 10.1 µM, the TGI (NCI-H23 lung) was 21.4 µM and the TGI (UACC-62 melanoma) was 24.1 µM. The TGI (UACC-257 melanoma) was 28.1 µM, the TGI (SF-268 CNS) was 17.1 µM and the TGI (786-0 renal) was 25 µM. For the same molecule, the TGI (NCI-H226 lung) was 30.4 µM and the TGI (SF-295 CNS) was 24.5 µM.

`CN(C)C(=S)/N=c1\ssc(=Nc2ccccc2)n1-c1ccccc1` gave a TGI (NCI-H23 lung) of over 100 µM, a TGI (UACC-257 melanoma) of over 100 µM and a TGI (SF-268 CNS) of 98.2 µM. For the same molecule, the TGI (786-0 renal) was 37.1 µM, the TGI (NCI-H226 lung) was 26.7 µM and the TGI (SF-295 CNS) was over 100 µM.

In the case of `CCCCS(=O)(=O)c1cc(Nc2ccc(O)c3c2C(=O)c2ccccc2C3=O)ccc1C`, the GI50 (MDA-MB-231 breast) was 1.68 µM, the TGI (MDA-MB-231 breast) was over 100 µM and the GI50 (RPMI-8226 leukemia) was over 100 µM. It also gave a TGI (RPMI-8226 leukemia) of over 100 µM, a GI50 (UACC-62 melanoma) of 2.77 µM and a TGI (UACC-62 melanoma) of over 100 µM. For the same molecule, the GI50 (SF-268 CNS) was 57.7 µM, the TGI (SF-268 CNS) was over 100 µM and the GI50 (786-0 renal) was over 100 µM. For the same molecule, the TGI (786-0 renal) was over 100 µM, the GI50 (NCI-H226 lung) was over 100 µM and the TGI (NCI-H226 lung) was over 100 µM. It also gave a GI50 (SF-295 CNS) of 5.77 µM and a TGI (SF-295 CNS) of over 100 µM.

For `NCCOCCOCC(=O)O`, the TGI (RPMI-8226 leukemia) was over 100 µM, the TGI (NCI-H23 lung) was over 100 µM and the TGI (SR leukemia) was over 100 µM. It also gave a TGI (UACC-62 melanoma) of over 100 µM, a TGI (UACC-257 melanoma) of over 100 µM and a TGI (SF-268 CNS) of over 100 µM. For the same molecule, the TGI (786-0 renal) was over 100 µM, the TGI (NCI-H226 lung) was over 100 µM and the TGI (SF-295 CNS) was over 100 µM.

`Cc1cc(O)c2c(c1)OC1(C)CCC3C(C)(C)CCCC34COC2C14` (stereo not given) showed a TGI (NCI-H23 lung) of 35.9 µM, a TGI (UACC-62 melanoma) of 34.8 µM and a TGI (UACC-257 melanoma) of 28.8 µM. The TGI (SF-268 CNS) was 30.7 µM, the TGI (786-0 renal) was 30.7 µM and the TGI (NCI-H226 lung) was 31 µM. It also gave a TGI (SF-295 CNS) of 28.3 µM.

`O=C(O)C1CC2C=CCC(C2)C1` (stereo not given) showed a TGI (RPMI-8226 leukemia) of over 100 µM, a TGI (NCI-H23 lung) of over 100 µM and a TGI (SR leukemia) of over 100 µM. The TGI (UACC-62 melanoma) was over 100 µM, the TGI (UACC-257 melanoma) was over 100 µM and the TGI (SF-268 CNS) was over 100 µM. For the same molecule, the TGI (786-0 renal) was over 100 µM, the TGI (NCI-H226 lung) was over 100 µM and the TGI (SF-295 CNS) was over 100 µM.

`COC(=O)CCC(NC(=S)N/N=C(\C)c1cccs1)C(=O)OC` (stereo not given) gave a TGI (NCI-H23 lung) of over 100 µM, a TGI (UACC-62 melanoma) of over 100 µM and a TGI (UACC-257 melanoma) of over 100 µM. For the same molecule, the TGI (SF-268 CNS) was over 100 µM, the TGI (786-0 renal) was over 100 µM and the TGI (NCI-H226 lung) was over 100 µM. The TGI (SF-295 CNS) was over 100 µM.

For `COC(=O)C1=C(O)c2cc(OC)c(OC)c(OC)c2C(c2ccc3c(c2)OCO3)[C@@H]1C(=O)OC` (stereo not given in full), the TGI (RPMI-8226 leukemia) was over 100 µM, the TGI (NCI-H23 lung) was over 100 µM and the TGI (SR leukemia) was over 100 µM. For the same molecule, the TGI (UACC-62 melanoma) was over 100 µM, the TGI (UACC-257 melanoma) was over 100 µM and the TGI (SF-268 CNS) was over 100 µM. The TGI (786-0 renal) was over 100 µM, the TGI (NCI-H226 lung) was over 100 µM and the TGI (SF-295 CNS) was 13.4 µM.

In the case of `O=S1(=O)CCC2=CC(C(F)(F)F)=CC(C(F)(F)F)=CN21`, the TGI (RPMI-8226 leukemia) was 2.05 µM, the TGI (NCI-H23 lung) was 3.37 µM and the TGI (SR leukemia) was 1.82 µM. The TGI (UACC-62 melanoma) was 3.69 µM, the TGI (UACC-257 melanoma) was 5.76 µM and the TGI (SF-268 CNS) was 4.68 µM. It also gave a TGI (786-0 renal) of 1.09 µM, a TGI (NCI-H226 lung) of 5.58 µM and a TGI (SF-295 CNS) of 4.8 µM.

— PubChem BioAssay (NCI)
